Measured values published in PubChem BioAssay (NCI).
Values joined by “and” are separate entries in the source; they are usually repeats but may differ in a detail not shown here. Identical values can stand only once.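 Cultured in 96-well plates, cells were exposed to test compound for 48 hours across five concentrations. Here, GI50 denotes the concentration required for 50% inhibition of growth. Definition used: TGI = concentration required for complete inhibition of growth.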 Where a SMILES comes first, the peptide text is derived from it. [ ]: non-standard residue; d: D form. The star is where a group is joined. ξ: configuration not given here. ξPhe(4-NO2) = NC(Cc1ccc([N+](=O)[O-])cc1)C(=O)O; Boc = CC(C)(C)OC(=O)*

Key:
Assay in all cases: growth of human tumour cells (NCI), 48 h
[1] = system: 786-0 renal
[2] = system: ACHN renal
[3] = system: BT-549 breast
[4] = system: CAKI-1 renal
[5] = system: HCC-2998 colon
[6] = system: K-562 leukemia
[7] = system: MDA-N
[8] = system: OVCAR-4 ovarian
[9] = system: SF-295 CNS
[10] = system: SK-OV-3 ovarian
[11] = system: SN12C renal
[12] = system: UACC-62 melanoma

Structure (SMILES) | TGI [1] [µM] | TGI [2] [µM] | TGI [3] | TGI [4] [µM] | TGI [5] [µM] | TGI [6] [µM] | TGI [7] [µM] | TGI [8] [µM] | TGI [9] [µM] | TGI [10] [µM] | TGI [11] [µM] | TGI [12] [µM] | GI50 [3] | GI50 [4]
COC(=O)/C=C/c1cnc2c(c1)oc(=O)n2C | > 100 | > 100 | > 100 µM | > 100 | > 100 | > 100 | > 100 | > 100 | > 100 | > 100 | > 100 | > 100 | – | –
O=P(O)(O)CC1OC(CO)C(O)C1O (stereo not given) | > 100 | > 100 | > 100 µM | > 100 | > 100 | > 100 | > 100 | > 100 | > 100 | > 100 | > 100 | > 100 | – | –
O=C1c2cc([N+](=O)[O-])sc2C(=O)c2cc([N+](=O)[O-])sc21 | 6.78 | 10.1 | 3.95 µM | 8.81 | 8.56 | – | 4.72 | 8.71 | 23.9 | 25.2 | 7.12 | 3.8 | – | –
COc1ccc(/C=C2/SC(c3c(O)ccc4ccccc34)N(NC(=O)CCCCCCCCC(=O)NN3C(=O)/C(=C\c4ccc(OC)c(OC)c4)SC3c3c(O)ccc4ccccc34)C2=O)cc1OC (stereo not given) | > 20.5 | > 54.1 | > 100 µM | > 100 | > 100 | 17 | > 100 | > 100 | > 100 | > 52.9 | > 100 | 11.2 | – | –
COc1cc2c3cc1Oc1c(OC)c(OC)cc4c1C(Cc1ccc(O)c(c1)-c1cc(ccc1OC)CC3N(C)CC2)N(C)CC4 (stereo not given) | > 100 | 56.8 | 51.1 µM | 59.6 | 37.9 | 61.8 | 30.6 | > 100 | 39.4 | > 100 | 42.7 | 57.2 | – | –
CC1(C)CC[C@]2(C(=O)O)CC[C@]3(C)C(=CC[C@@H]4[C@@]5(C)CC[C@H](OC6OC(CO)C(O)C(O)C6O)C(C)(C)[C@@H]5CC[C@]43C)[C@@H]2C1 (stereo not given in full) | 3.23 | 3.04 | 2.59 µM | 5.93 | 3.18 | 3.67 | 3.54 | 3 | 3.2 | 3.16 | 3.07 | 3.28 | – | –
CCCCN1CCC(O)(c2cc(C(=O)O)[nH]c2-c2cc(C)no2)C1=O (stereo not given) | > 100 | > 100 | > 100 µM | > 100 | > 100 | > 100 | > 100 | > 100 | > 100 | > 100 | – | > 100 | – | –
C(#C[C@@]12CCC[C@@H]1N(Cc1ccccc1)CO2)c1ccc2c(c1)OCO2 | > 100 | > 100 | > 100 µM | > 100 | > 100 | > 100 | > 100 | > 100 | > 100 | > 100 | > 100 | > 100 | – | –
C=CC(C)(C)n1cc(C2=C(O)C(=O)C(c3c(CC=C(C)C)[nH]c4ccccc34)=C(O)C2=O)c2ccccc21 | 6.97 | 4.32 | 1.91 µM | 7.16 | 2.33 | 5.02 | 4.08 | 11.8 | 4.1 | 5.41 | 3.6 | 1.18 | – | –
CCSc1nc(C)nc2c1sc1nc3ccccc3n12 | > 100 | > 100 | > 100 µM | > 100 | > 100 | > 100 | > 100 | > 100 | > 100 | > 100 | > 100 | > 100 | – | –
CCNC(=O)CNC(=O)C(Cc1ccc([N+](=O)[O-])cc1)NC(=O)OC(C)(C)C (stereo not given) (Boc-[ξPhe(4-NO2)]-Gly-NHEt) | > 100 | > 100 | > 100 µM | > 100 | > 100 | > 100 | > 100 | > 100 | > 100 | > 100 | > 100 | > 100 | – | –
FC(F)(F)C1(c2ccccc2)SCc2nc3ccccc3n21 (stereo not given) | > 100 | > 100 | > 100 µM | > 100 | > 100 | > 100 | > 100 | > 100 | > 100 | > 100 | > 100 | > 100 | – | –
Cc1cc(=O)n2nc(CSc3n[nH]c(=S)s3)sc2n1 | > 100 | > 100 | > 100 µM | > 100 | > 100 | > 100 | > 100 | > 100 | > 100 | > 100 | > 100 | > 100 | – | –
C=CCN(c1cc(OC)c2c(c1[N+](=O)[O-])C(C)(SC)C(=O)N2)S(C)(=O)=O (stereo not given) | > 100 | > 100 | > 100 µM | > 100 | > 100 | > 100 | > 100 | > 100 | > 100 | > 100 | > 100 | > 100 | – | –
OC1(C2(c3ccc(Cl)cc3)CCCC2)c2ccccc2C2=NCCN21 (stereo not given) | 27.3 | 30.5 | 31.5 µM | 28.9 | 4 | 20.4 | 29.7 | 28.8 | 30.7 | 33.9 | 31.5 | 29.7 | – | –
OC[C@@H](O)[C@H](O)[C@@H](O)/C=N/Nc1ccc(Cl)nn1 | > 100 | > 100 | > 100 µM | > 100 | > 100 | – | > 100 | > 100 | > 100 | > 100 | > 100 | > 100 | – | –
Cc1ccc(N2C3=C(CC4=C2CC(C)(C)CC4=O)C(=O)CC(C)(C)C3)cc1 | > 100 | > 100 | > 100 µM | > 100 | > 100 | > 100 | > 100 | > 100 | > 100 | > 100 | > 100 | > 100 | – | –
Cc1c(C#N)c(N)n(C2OC(CO)C(O)C(O)C2O)c(=S)c1C#N (stereo not given) | > 100 | > 100 | 68.6 µM and > 100 µM | > 100 | > 100 | > 100 | > 100 | > 100 | > 100 | > 100 | > 100 | > 100 | 18.5 µM and > 100 µM | 24.4 µM and > 100 µM
